Reference: ChEMBL document CHEMBL1132619 (J Med Chem, 1999)

Assays:
[1] = molecular target: Histamine H3 receptor (Cavia porcellus) (UniProt Q9JI35); conditions: Jejunum
[2] = molecular target: Histamine H3 receptor (Rattus norvegicus) (UniProt Q9QYN8); conditions: Cerebral cortex
[3] = molecular target: Histamine H1 receptor (Cavia porcellus) (UniProt P31389); conditions: Jejunum
[4] = molecular target: Histamine H2 receptor (Cavia porcellus) (UniProt P47747); conditions: Cardiac atrium
Histamine H3 receptor = Histamine H3 receptor (Rattus norvegicus, UniProt Q9QYN8); assay: In vitro binding affinity was measured against Histamine H3 receptor on rat cerebral cortex.; format: tissue-based
Histamine H3 receptor, sequence (Q9QYN8 whole entry): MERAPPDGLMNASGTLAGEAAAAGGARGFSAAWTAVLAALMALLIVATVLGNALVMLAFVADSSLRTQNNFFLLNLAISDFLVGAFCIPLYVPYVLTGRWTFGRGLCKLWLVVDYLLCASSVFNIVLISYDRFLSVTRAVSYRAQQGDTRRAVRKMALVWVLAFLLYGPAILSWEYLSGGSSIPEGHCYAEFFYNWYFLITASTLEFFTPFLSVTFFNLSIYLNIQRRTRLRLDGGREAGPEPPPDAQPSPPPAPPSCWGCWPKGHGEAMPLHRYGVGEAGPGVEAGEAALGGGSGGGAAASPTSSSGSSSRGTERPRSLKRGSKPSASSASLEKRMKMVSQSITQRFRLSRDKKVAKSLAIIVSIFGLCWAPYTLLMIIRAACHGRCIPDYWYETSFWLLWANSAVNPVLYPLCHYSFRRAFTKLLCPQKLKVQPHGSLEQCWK

Histamine H1 receptor (Cavia porcellus), sequence (P31389 whole entry): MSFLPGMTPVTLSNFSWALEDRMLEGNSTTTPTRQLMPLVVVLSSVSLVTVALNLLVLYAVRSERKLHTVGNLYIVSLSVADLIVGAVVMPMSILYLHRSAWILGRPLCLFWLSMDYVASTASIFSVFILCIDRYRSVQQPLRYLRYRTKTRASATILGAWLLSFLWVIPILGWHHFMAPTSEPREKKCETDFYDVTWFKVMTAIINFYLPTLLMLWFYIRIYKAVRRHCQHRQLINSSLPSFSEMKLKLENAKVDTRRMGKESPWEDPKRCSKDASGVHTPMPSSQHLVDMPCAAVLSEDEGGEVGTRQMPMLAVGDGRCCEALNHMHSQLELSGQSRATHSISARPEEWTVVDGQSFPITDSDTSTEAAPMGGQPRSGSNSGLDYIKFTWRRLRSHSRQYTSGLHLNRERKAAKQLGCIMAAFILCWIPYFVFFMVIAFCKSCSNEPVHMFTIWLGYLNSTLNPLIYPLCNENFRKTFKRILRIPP
Histamine H3 receptor (Cavia porcellus), sequence (Q9JI35 whole entry): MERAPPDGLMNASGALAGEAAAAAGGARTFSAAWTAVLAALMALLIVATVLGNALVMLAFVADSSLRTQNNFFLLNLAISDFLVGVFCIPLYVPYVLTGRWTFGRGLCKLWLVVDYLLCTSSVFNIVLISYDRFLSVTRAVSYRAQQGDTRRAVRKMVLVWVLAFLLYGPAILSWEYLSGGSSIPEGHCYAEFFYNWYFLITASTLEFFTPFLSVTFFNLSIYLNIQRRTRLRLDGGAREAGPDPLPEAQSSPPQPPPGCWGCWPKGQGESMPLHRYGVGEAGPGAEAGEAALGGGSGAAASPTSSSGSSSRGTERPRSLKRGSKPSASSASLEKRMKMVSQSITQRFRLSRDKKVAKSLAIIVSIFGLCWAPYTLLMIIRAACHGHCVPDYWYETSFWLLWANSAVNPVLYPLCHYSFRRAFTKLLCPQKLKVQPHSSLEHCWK
Histamine H3 receptor (Rattus norvegicus), sequence (Q9QYN8 whole entry): as the sequence (Q9QYN8 whole entry) above
Histamine H2 receptor (Cavia porcellus), sequence (P47747 whole entry): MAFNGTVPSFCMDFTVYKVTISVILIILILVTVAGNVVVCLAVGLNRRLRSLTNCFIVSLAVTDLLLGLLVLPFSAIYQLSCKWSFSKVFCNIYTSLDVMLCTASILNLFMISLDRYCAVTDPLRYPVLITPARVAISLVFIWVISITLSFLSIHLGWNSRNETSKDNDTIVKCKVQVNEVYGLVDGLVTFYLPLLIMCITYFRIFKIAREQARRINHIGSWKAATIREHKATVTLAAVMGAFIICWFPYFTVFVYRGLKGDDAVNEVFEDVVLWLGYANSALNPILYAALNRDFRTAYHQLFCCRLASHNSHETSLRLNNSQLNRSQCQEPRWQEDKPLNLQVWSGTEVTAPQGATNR

Row | SMILES | pD2 [1] | pD2 [2] | pD2 [3] | pD2 [4] | Ki (Histamine H3 receptor)
1 | N[C@@H]1C[C@H]1c1c[nH]cn1 | 6.15 | 5.75 | 4.5 | 4.9 | 
2 | N[C@H]1C[C@@H]1c1c[nH]cn1 [VUF-5297] | 6.64 | 7.08 | 5 | 4.8 | 1.74 nM
3 | N[C@@H]1C[C@H]1c1cnc[nH]1 [VUF-5296] |  |  |  |  | 25.1 nM
4 | NCCc1c[nH]cn1 | 7.4 | 7.4 | 6.6 | 6.1 | 
